This passage reports IC50 results from patent US8987209B2, “N-carboxyalkyl-auristatin and the use thereof” (Seattle Genetics, Inc., priority 2010, dated 2015).

In assay [1] the test system is human renal carcinoma cell line 786-0. In words: Anti-proliferative effect on renal cell carcinoma 786-0 cell line (MTT assay). As to conditions: Homo sapiens, 786-0 cells, incubation 48 to 96 hours, serum free medium or 2% FCS. The class given is cell-based. The protocol:
B-1. Determination of Anti-proliferative Effects of Renal Cell Carcinoma 786-0 Cell Line:
A defined number of cells of the human renal carcinoma cell line 786-0 were cultured in a 96 well micro titer plate in rich medium (2500 or 7.000 cells/well) and then incubated over night at 37° C./5% CO2. After 18 hours the seed medium was replaced by a serum free medium or medium with 2% FCS. The treatment began with measuring out the respective test substances in varying concentrations (10^−5 M to 10^−14 M). Incubation times of between 48 hours and 96 hours were chosen. The proliferation was determined by means of the MTT assay (ATCC, Manassas, Va., USA, catalogue no. 30-1010K). After completion of incubation period the MTT reagent was incubated with the cells for 4 hours before lysis occurred over night by measuring out the detergent. The created stain was detected at 570 nm. The proliferation of the cells, which were treated identically to the other cells but without the test substance was defined as the 100% value. The data obtained from this test represent triple determinations and at least two experiments had been carried out independently of each other.
In general terms: Formazan colour is commonly taken as a measure of viable cells.

Another assay deals with HT-29 wt cell line. In words: Anti-proliferative effect on HT-29 wt cell line (MTT assay). It counts as cell-based, human. The note with it: Homo sapiens, HT-29 wt cells, incubation 48 to 96 hours, medium with 10% FCS. The protocol:
B-2. Determination of Anti-proliferative Effects of HT-29 wt Cell Line:
After 18 hours the seed medium was replaced by a fresh medium with 10% FCS. The treatment started with measuring out the respective test substance. The dose-response curves were determined of the investigative substances with a concentration of 10^−5 M to 10^−14 M (1:10 dilutions). Incubation times of between 48 hours and 96 hours were chosen. The proliferation was detected by means of the MTT assay (ATCC, Manassas, Va., USA, catalogue no. 30-1010K). After completion of selected incubation period the MTT reagent was incubated with the cells for 4 hours before lysis occurred over night by measuring out the detergent. The created stain was detected at 570 nm. The proliferation of the cells, which were treated identically to the other cells but without the test substance, was defined as the 100% value. The data obtained from this test represent triple determinations and at least two experiments had been carried out independently of each other.

pIC50: −log10 of the molar value. Square brackets hold non-standard residues; d marks the D form. Peptide text beside a SMILES is read from it. * marks the point of attachment. NMeVal(N-(CH2)3COOH) = CC(C)[C@@H](C(=O)*)N(C)CCCC(=O)O; Dolaproine = CO[C@@H]([C@@H]1CCCN1)[C@@H](C)C(=O)O; Dil = CC[C@H](C)[C@H](NC)[C@@H](CC(=O)O)OC; X3 = CC(C)[C@@H](C(=O)*)N(C)CCCCCC(=O)O; NMe(benzyl) = CN(Cc1ccccc1)*; X4 = C1C2CC3CC1CC(CO*)(C2)C3; X6 = C1C2CC3CC1CC(O*)(C2)C3; X2 = c1ccc2c(CO*)cccc2c1; NHBn = c1ccc(CN*)cc1; OBn = c1ccc(CO*)cc1; OtBu = CC(C)(C)O*

As usually defined, the pIC50 is the negative decadic logarithm of the IC50, by convention in mol/L.

In the case of `CC[C@H](C)[C@@H]([C@@H](CC(=O)N1CCC[C@H]1[C@H](OC)[C@@H](C)C(=O)N[C@@H](Cc1ccccc1)C(=O)OCc1cccc2ccccc12)OC)N(C)C(=O)[C@@H](NC(=O)[C@H](C(C)C)N(C)CCCC(=O)O)C(C)C` [Example 1, N-(3-carboxypropyl)-N-methyl-L-valyl-N-[(3R,4S,5S)-3-methoxy-1-{(2S)-2-[(1R,2R)-1-methoxy-2-methyl-3-{[(2S)-1-(1-naphthylmethoxy)-1-oxo-3-phenylpropane-2-yl]amino}-3-oxopropyl]pyrrolidin-1-yl}-5-methyl-1-oxoheptan-4-yl]-N-methyl-L-valinamide] ({NMeVal(N-(CH2)3COOH)}-V[Dil][Dolaproine]F-X2), the pIC50 is 8.96 in assay [1] and 10.00 in the assay with HT-29 wt cell line.
In turn, `CC[C@H](C)[C@@H]([C@@H](CC(=O)N1CCC[C@H]1[C@H](OC)[C@@H](C)C(=O)N[C@@H](Cc1ccccc1)C(=O)OC12CC3CC(CC(C3)C1)C2)OC)N(C)C(=O)[C@@H](NC(=O)[C@H](C(C)C)N(C)CCCC(=O)O)C(C)C` [Example 2, N-(3-carboxypropyl)-N-methyl-L-valyl-N-[(3R,4S,5S)-1-{(2S)-2-[(1R,2R)-3-{[(2S)-1-(adamantane-1-yloxyy)-1-oxo-3-phenylpropane-2-yl]amino}-1-methoxy-2-methyl-3-oxopropyl]pyrrolidin-1-yl}-3-methoxy-5-methyl-1-oxoheptan-4-yl]-N-methyl-L-valinamide] ({NMeVal(N-(CH2)3COOH)}-V[Dil][Dolaproine]F-X6) showed a pIC50 in assay [1] of 8.66.
Same read-out and setting: as for `CC[C@H](C)[C@@H]([C@@H](CC(=O)N1CCC[C@H]1[C@H](OC)[C@@H](C)C(=O)N[C@@H](Cc1ccccc1)C(=O)OCC12CC3CC(CC(C3)C1)C2)OC)N(C)C(=O)[C@@H](NC(=O)[C@H](C(C)C)N(C)CCCC(=O)O)C(C)C` [Example 3, N-(3-carboxypropyl)-N-methyl-L-valyl-N-[(3R,4S,5S)-1-{(2S)-2-[(1R,2R)-3-{[(2S)-1-(adamantane-1-ylmethoxy)-1-oxo-3-phenylpropane-2-yl]amino}-1-methoxy-2-methyl-3-oxopropyl]pyrrolidin-1-yl}-3-methoxy-5-methyl-1-oxoheptan-4-yl]-N-methyl-L-valinamide] ({NMeVal(N-(CH2)3COOH)}-V[Dil][Dolaproine]F-X4), the figure is 9.15.
On to `CC[C@H](C)[C@@H]([C@@H](CC(=O)N1CCC[C@H]1[C@H](OC)[C@@H](C)C(=O)N[C@H](COCc1ccccc1)Cc1ccccc1)OC)N(C)C(=O)[C@@H](NC(=O)[C@H](C(C)C)N(C)CCCC(=O)O)C(C)C` [Example 4, N-(3-carboxypropyl)-N-methyl-L-valyl-N-[(3R,4S,5S)-1-{(2S)-2-[(1R,2R)-3-{[(2S)-1-(benzyloxy)-3-phenylpropane-2-yl]amino}-1-methoxy-2-methyl-3-oxopropyl]pyrrolidin-1-yl}-3-methoxy-5-methyl-1-oxoheptan-4-yl]-N-methyl-L-valinamide], for which the results for the pIC50 (in assay [1]; in the assay with HT-29 wt cell line) were 9.10 and 10.00, respectively.
The compound `CC[C@H](C)[C@@H]([C@@H](CC(=O)N1CCC[C@H]1[C@H](OC)[C@@H](C)C(=O)N[C@@H](Cc1ccccc1)C(=O)OCc1ccccc1)OC)N(C)C(=O)[C@@H](NC(=O)[C@H](C(C)C)N(C)CCCC(=O)O)C(C)C` [Example 5, N-(3-carboxypropyl)-N-methyl-L-valyl-N-[(3R,4S,5S)-1-{(2S)-2-[(1R,2R)-3-{[(2S)-1-(benzyloxy)-1-oxo-3-phenylpropan-2-yl]amino}-1-methoxy-2-methyl-3-oxopropyl]pyrrolidin-1-yl}-3-methoxy-5-methyl-1-oxoheptan-4-yl]-N-methyl-L-valinamide] ({NMeVal(N-(CH2)3COOH)}-V[Dil][Dolaproine]F-OBn) showed a pIC50 in assay [1] of 9.70.
Take `CC[C@H](C)[C@@H]([C@@H](CC(=O)N1CCC[C@H]1[C@H](OC)[C@@H](C)C(=O)N[C@H](C(=O)OCc1ccccc1)[C@@H](C)c1ccccc1)OC)N(C)C(=O)[C@@H](NC(=O)[C@H](C(C)C)N(C)CCCC(=O)O)C(C)C` [Example 6, N-(3-carboxypropyl)-N-methyl-L-valyl-N-[(3R,4S,5S)-1-{(2S)-2-[(1R,2R)-3-{[(2S,3S)-1-(benzyloxy)-1-oxo-3-phenylbutane-2-yl]amino}-1-methoxy-2-methyl-3-oxopropyl]pyrrolidin-1-yl}-3-methoxy-5-methyl-1-oxoheptan-4-yl]-N-methyl-L-valinamide]: the results for the pIC50 (in assay [1]; with HT-29 wt cell line) were 8.96 and 9.40, respectively.
Turning to `CC[C@H](C)[C@@H]([C@@H](CC(=O)N1CCC[C@H]1[C@H](OC)[C@@H](C)C(=O)N[C@@H](Cc1ccccc1)C(=O)N(C)Cc1ccccc1)OC)N(C)C(=O)[C@@H](NC(=O)[C@H](C(C)C)N(C)CCCC(=O)O)C(C)C` [Example 9, N-(3-carboxypropyl)-N-methyl-L-valyl-N-[(3R,4S,5S)-1-{(2S)-2-[(1R,2R)-3-({(2S)-1-[benzyl(methyl)amino]-1-oxo-3-phenylpropane-2-yl}amino)-1-methoxy-2-methyl-3-oxopropyl]pyrrolidin-1-yl}-3-methoxy-5-methyl-1-oxoheptan-4-yl]-N-methyl-L-valinamide] ({NMeVal(N-(CH2)3COOH)}-V[Dil][Dolaproine]F-{NMe(benzyl)}), the pIC50 in assay [1] is 7.28; with HT-29 wt cell line, 8.36.
With `CC[C@H](C)[C@@H]([C@@H](CC(=O)N1CCC[C@H]1[C@H](OC)[C@@H](C)C(=O)N[C@@]1(C(=O)OCc2ccccc2)C[C@@H]1c1ccccc1)OC)N(C)C(=O)[C@@H](NC(=O)[C@H](C(C)C)N(C)CCCC(=O)O)C(C)C` [Example 10, N-(3-carboxypropyl)-N-methyl-L-valyl-N-[(3R,4S,5S)-1-{(2S)-2-[(1R,2R)-3-({(1S,2R)-1-[(benzyloxy)carbonyl]-2-phenylcyclopropyl}amino)-1-methoxy-2-methyl-3-oxopropyl]pyrrolidin-1-yl}-3-methoxy-5-methyl-1-oxoheptan-4-yl]-N-methyl-L-valinamide], the pIC50 in assay [1] is 7.09.
Still for that read-out and setting: for `CC[C@H](C)[C@@H]([C@@H](CC(=O)N1CCC[C@H]1[C@H](OC)[C@@H](C)C(=O)N[C@@H](Cc1ccccc1)C(=O)NCc1ccccc1)OC)N(C)C(=O)[C@@H](NC(=O)[C@H](C(C)C)N(C)CCCC(=O)O)C(C)C` [Example 15, N-(3-carboxypropyl)-N-methyl-L-valyl-N-[(3R,4S,5S)-1-{(2S)-2-[(1R,2R)-3-{[(2S)-1-(benzylamino)-1-oxo-3-phenylpropan-2-yl]amino}-1-methoxy-2-methyl-3-oxopropyl]pyrrolidin-1-yl}-3-methoxy-5-methyl-1-oxoheptan-4-yl]-N-methyl-L-valinamide] ({NMeVal(N-(CH2)3COOH)}-V[Dil][Dolaproine]F-NHBn) the value was 9.05.
As to `CC[C@H](C)[C@@H]([C@@H](CC(=O)N1CCC[C@H]1[C@H](OC)[C@@H](C)C(=O)N[C@@H](Cc1c[nH]c2ccccc12)C(=O)NCc1ccccc1)OC)N(C)C(=O)[C@@H](NC(=O)[C@H](C(C)C)N(C)CCCC(=O)O)C(C)C` [Example 16, N-(3-carboxypropyl)-N-methyl-L-valyl-N-[(3R,4S,5S)-1-{(2S)-2-[(1R,2R)-3-{[(2S)-1-(benzyl-amino)-3-(1H-indol-3-yl)-1-oxopropane-2-yl]amino}-1-methoxy-2-methyl-3-oxopropyl]pyrrolidin-1-yl}-3-methoxy-5-methyl-1-oxoheptan-4-yl]-N-methyl-L-valinamide] ({NMeVal(N-(CH2)3COOH)}-V[Dil][Dolaproine]W-NHBn), the pIC50 is 7.92 in assay [1] and 10.00 in the assay on HT-29 wt cell line.
In assay [1], `CC[C@H](C)[C@@H]([C@@H](CC(=O)N1CCC[C@H]1[C@H](OC)[C@@H](C)C(=O)N[C@@H](Cc1ccccc1)C(=O)OC(C)(C)C)OC)N(C)C(=O)[C@@H](NC(=O)[C@H](C(C)C)N(C)CCCC(=O)O)C(C)C` [Example 20, N-(3-carboxypropyl)-N-methyl-L-valyl-N-[(3R,4S,5S)-1-{(2S)-2-[(1R,2R)-3-{[(2S)-1-tert.-butoxy-1-oxo-3-phenylpropane2-yl]amino}-1-methoxy-2-methyl-3-oxopropyl]pyrrolidin-1-yl}-3-methoxy-5-methyl-1-oxoheptan-4-yl]-N-methyl-L-valinamide] ({NMeVal(N-(CH2)3COOH)}-V[Dil][Dolaproine]F-OtBu) showed a pIC50 of 9.52.
In turn, `CC[C@H](C)[C@@H]([C@@H](CC(=O)N1CCC[C@H]1[C@H](OC)[C@@H](C)C(=O)N[C@@H](Cc1c[nH]c2ccccc12)C(=O)NCc1ccccc1)OC)N(C)C(=O)[C@@H](NC(=O)[C@H](C(C)C)N(C)CCCCCC(=O)O)C(C)C` [Example 28, N-(5-carboxypentyl)-N-methyl-L-valyl-N-[(3R,4S,5S)-1-{(2S)-2-[(1R,2R)-3-{[(2S)-1-(benzylamino)-3-(1H-indol-3-yl)-1-oxopropane-2-yl]amino}-1-methoxy-2-methyl-3-oxopropyl]pyrrolidin-1-yl}-3-methoxy-5-methyl-1-oxoheptan-4-yl]-N-methyl-L-valinamide] (X3-V[Dil][Dolaproine]W-NHBn) gave a pIC50 with HT-29 wt cell line of 8.89.
